In patent publication US8945595B2, “Insect repellent and attractants” (The Regents of the University of California, priority 2009, dated 2015):

Tested on: CO2-sensitive ab1C neurons
Test: single-sensillum electrophysiology, inhibition of CO2 response of ab1C neurons
Type: cell-based, Drosophila
Details: for inhibition of CO2 response of ab1C neurons: 0.3% CO2 with varying concentrations of odourant, applied prior to or after CO2 stimulus; for silencing of CO2 neuron beyond the period of application: 2,3-butanedione at concentrations >=10^-1, 1-hexanol at the concentrations tested; for inhibition of CO2 response across tested CO2 concentrations: CO2 0.1% up to ~3%
Excerpt: Representative traces (top) and mean responses (bottom) from single-sensillum electrophysiology of ab1 sensilla in mutant flies; spikes represent activity of the ab1C neuron. a, 3-sec stimulus of odourant overlaid with a 1-sec application of 0.3% CO2. b, 3-sec stimulus of 0.3% CO2 overlaid with a 1-sec application of odourant. PO=paraffin oil, d4on=2,3-butanedione, 6ol=1-hexanol. n=6, error bars=s.e.m. Spikes per second were counted during the 1-sec stimulus period, and spontaneous activity subtracted. (For data in a and b, T-test, *P<0.001, **P<0.005, ***P<0.01, ****P<0.05) c, ab1C responses to indicated concentrations of CO2 in the presence of solvent (PO), 1-hexanol (6ol) or 2,3-butanedione (d4on). Odourants were tested at 10^−1 dilution. Firing rates were counted in consecutive 0.1-sec bins. n=3, error bars=s.e.m.
Bars indicate stimulus periods for 0.3% CO2, and overlays with 1-hexanol (6ol) or 2,3-butanedione (d4on) at the indicated concentrations. b, Recovery of ab1C responsiveness to a 0.5-sec, 0.3% CO2 stimulus applied every 30-sec after initial treatment with 3-sec stimulus of either d4on (10^−1) or paraffin oil (PO). n=5, error bars=s.e.m., (T-test, *P<0.005, **<0.01, ***P<0.05). c, CO2 response inhibition by structurally related compounds. A 3-sec stimulus of 0.3% CO2 was delivered in combination with 1-sec application of indicated odourant (10^−2) as in a. Percent increase or decrease in mean ab1C response was calculated relative to mean response of paraffin oil. n=5. d, Structures of CO2 and the 4 strongest antagonists. e-f, show mean odourant responses. e, Odourants were tested on ab1C neurons in Or83b2 flies at 10^−2 dilution in paraffin oil. Bars represent values after subtraction of mean response to paraffin oil. n=3. f, Odourants at indicated concentrations were tested on ab3A neuron in wild-type (wt) and ΔHalo (AH) mutants that lack Or22a and Or22b. Bars represent values after subtraction of spontaneous activity. n=5, error bars=s.e.m.
FIG. 16 is a schematic diagram of an odour-delivery system to maintain steady concentration of CO2 in binary mixture experiments. Cartridges were made from Pasteur pipettes with pre-filled cotton wool inserts. […] odorant dissolved in paraffin oil (at specific concentrations) was applied to the cotton wool, and a 1.5 ml disposable tip attached to the open end to make the “odour cartridge”. A controlled “humidified air flow” was generated from a compressed air cylinder by bubbling through water, and passed through a glass tube, and released over the recording arena holding the Drosophila. A C-55 stimulus controller (Syntech) was used to generate an additional activated-charcoal filtered continuous air flow of 5 ml/sec which was delivered into the humidified airstream through a “blank cartridge” with the tip placed through a hole in the tube. To generate controlled odourant stimulus the C-55 stimulus controller was used to switch air flow from the “continuous air flow” to “odor stimulus flow” channel. An additional CO2 stimulus was pulsed through a separate system that delivered controlled pulses (variable 2.5 ml/sec-6.5 ml/sec) into the same humidified airstream, from either a 1%, 5% or 100% cylinder of CO2 (Airgas).
Extracellular single-unit recordings were performed. Odourant stimuli were delivered via Pasteur pipette odour cartridges (see, FIG. 16). Chemicals were of the highest purity available, typically>99% (Sigma-Aldrich). All odourants were diluted in paraffin oil. A controlled volume of air 5 ml/sec was puffed through the odour cartridge containing vapours, and was delivered into a constant humidified airstream of 10 ml/sec that was passed over the fly antenna. […] CO2 stimulus was pulsed through a separate delivery system that delivered controlled pulses (variable 2.5 ml/sec-6.5 ml/sec) into the same humidified airstream, from either a 1%, 5% or 100% tank of CO2 (Airgas). […]

Compound | effect of order of presentation on strength of CO2 response inhibition (0.3% CO2) | inhibition of CO2 response of ab1C neurons | silencing of CO2 neuron beyond the period of application | CO2 response at 10 minutes versus neurons not pre-exposed (after 3-second stimulus of odourant 10^-1, 0.3% CO2) | time until responsiveness to CO2 restored to half-maximal levels (after 3-second stimulus of odourant 10^-1, 0.5-second 0.3% CO2 every 30 seconds) | inhibition of CO2 response across tested CO2 concentrations (odourant 10^-1) | silencing of CO2-responsive neurons (odourant at concentrations >10^-2, 0.3% CO2) | CO2 concentration at which complete inhibition occurs (odourant 10^-1, lowest concentration tested)
CC(=O)C(C)=O [2,3-butanedione] | of lesser consequence | inhibited CO2 response in a dose-dependent manner | silenced the CO2 neuron well beyond the period of application | significantly lower | ~3 min | complete inhibition | silences CO2-responsive neurons completely | 
CCCCCCO [1-hexanol] | greater if it is presented subsequent to the CO2 stimulus | inhibited CO2 response in a dose-dependent manner | not observed |  |  | significant reduction |  | 0.1 % CO2
